Patent US12319655B2, “RAF kinase inhibitors and methods of use thereof” (Deciphera Pharmaceuticals, LLC, priority 2021, dated 2025)

Assays:
Format in all cases: cell-based
Miapaca-2 cells [1] = assay: MiaPaca-2 Combination Cell proliferation Assay (1) with cobimetinib; details: MiaPaca-2 cell proliferation, read-out: MiaPaca-2 Combo (1) IC50
Miapaca-2 cells [2] = assay: MiaPaca-2 Combination Cell Proliferation Assay (2) with cobimetinib; details: MiaPaca-2 cell proliferation, read-out: MiaPaca-2 Combo (2) IC50
Description: MiaPaca-2 Combination Cell Proliferation Assay (2)
Miapaca-2 cells (catalog #CRL-1420) are obtained from the American Type Culture Collect (ATCC, Manassas, VA). Briefly, cells were grown in DMEM supplemented with 10% characterized fetal bovine serum (Invitrogen, Carlsbad, CA), 2.5% New Zealand sourced horse serum and 1% Penicillin/Streptomycin/L-Glutamine at 37° C., 5% CO2, and 95% humidity. Cells are expanded until reaching 70-95% confluency at which point they are subcultured or harvested for assay use. Using the Beckman Coulter Echo 650, a threefold, 8-point serial dilution of compound was spotted column wise into a 384 well black, clear bottom, tissue culture treated plate. Likewise, a threefold, 8-point serial dilution of cobimetinib was spotted row wise into the 384 well black, clear bottom plate containing compound. DMSO concentration was constant across all wells at 0.4%. Seven hundred fifty cells are added per well in 50 μL complete growth medium in each 384-well plate. Plates are incubated for 67-72 hours at 37° C., 5% CO2, and 95% humidity. At the end of the incubation, 10 μL of a 440 μM solution of resazurin (Sigma, St. Louis, MO) in PBS is added to each well of the plate and plates are incubated for an additional 4-6 hours at 37° C., 5% CO2, and 95% humidity. Plates are read on a Synergy2 or equivalent reader (Biotek, Winooski VT) using an excitation of 540 nm and an emission of 600 nm. Drug synergy was assessed via BLISS analysis in the Combenefit software (Cancer Research UK Cambridge Institute, Cambridge, UK). Data is analyzed using Prism software (Graphpad, San Diego, CA) to calculate IC50 values. Shifts in test compound IC50 values are reported from top-constrained combination therapy curves.

WM3629 cells = assay: WM3629 Cell Proliferation Assay (2)
Description: WM3629 Cell Proliferation Assay (2)
WM3629 cells (#WM3629-01-0001) are obtained from Rockland Immunochemicals Inc (Gilbertsville, PA). Briefly, cells were grown in MCDB 153 medium (Sigma, #M7403, St. Louis, MO) supplemented with 20% Leibovitz's L-15 (ThermoFisher #11415-064, Waltham, MA), 2% heat inactivated fetal bovine serum (ThermoFisher, #A3840001, Waltham, MA), 5 μg/mL Insulin (Bovine Pancreas) (Sigma, #I0516, St. Louis, MO), 1.68 mM Calcium Chloride (Sigma, #C-34006, St. Louis, MO) and 1% Penicillin/Streptomycin/L-Glutamine (ThermoFisher #10378016, Waltham, MA) at 37° C., 5% CO2, and 95% humidity. Cells are expanded until reaching 70-95% confluency at which point they are sub-cultured or harvested for assay use. Using the Beckman Coulter Echo 650, a serial dilution of test compound is dispensed into a 384-well black clear bottom plate in triplicate. One thousand one hundred twenty-five cells are added per well in 50 μL complete growth medium in the 384-well plate. Plates are incubated for 67-72 hours at 37° C., 5% CO2, and 95% humidity. At the end of the incubation, 10 μL of a 440 μM solution of resazurin (Sigma, #199303, St. Louis, MO) in PBS is added to each well of the plate and plates are incubated for an additional 3-6 hours at 37° C., 5% CO2, and 95% humidity. Plates are read on a Synergy2 or equivalent reader (Biotek, Winooski VT) using an excitation of 540 nm and an emission of 600 nm. Data is analyzed using Prism software (GraphPad, San Diego, CA) to calculate IC50 values.

CNC(=O)c1cc(-c2cncc(-c3cc(NC(=O)c4ccnc(C(C)(C)F)c4)ccc3C)c2)ccn1 [Example 413]
IC50 (Miapaca-2 cells [1]): 100 to 500 nM

COc1ccc(NC(=O)c2ccnc(C(C)(C)C#N)c2)cc1-c1cccc(-c2cc(NC(=O)C3CC3)ncn2)c1 [Example 438]
IC50 (Miapaca-2 cells [1]): 100 to 500 nM

CNC(=O)c1cc(-c2cncc(-c3cc(NC(=O)c4ccnc(C(C)(F)F)c4)ccc3C)c2)ccn1 [Example 440]
IC50 (Miapaca-2 cells [2]): 500 to 1000 nM

CNC(=O)c1cc(-c2cc(-c3cc(NC(=O)c4ccnc(C(C)(F)F)c4)ccc3C)ccn2)ccn1 [Example 441]
IC50 (Miapaca-2 cells [2]): 100 to 500 nM

CNC(=O)c1cc(-c2cc(-c3cc(NC(=O)c4ccnc(C(C)C)c4)ccc3C)ccn2)ccn1 [Example 443]
IC50 (WM3629 cells): ≤ 100 nM
IC50 (Miapaca-2 cells [2]): 100 to 500 nM

CNC(=O)c1cc(-c2cncc(-c3cc(NC(=O)c4ccnc(C(C)C)c4)ccc3C)c2)ccn1 [Example 445]
IC50 (WM3629 cells): ≤ 100 nM
IC50 (Miapaca-2 cells [2]): 100 to 500 nM

CNC(=O)c1cc(-c2cncc(-c3cc(NC(=O)c4ccnc(C(C)C)c4)ccc3C)c2)ncn1 [Example 446]
IC50 (WM3629 cells): ≤ 100 nM

Cc1ncc(NC(=O)c2ccnc(C(C)(F)F)c2)cc1-c1ccnc(-c2ccnc(NC(=O)C3CC3)c2)c1 [Example 466]
IC50 (WM3629 cells): ≤ 100 nM

CNC(=O)c1cc(-c2cc(-c3cc(NC(=O)c4ccnc(C(C)(C)F)c4)ccc3C)c(F)cn2)ccn1 [Example 469]
IC50 (WM3629 cells): ≤ 100 nM

CNC(=O)c1cc(-c2cc(-c3cc(NC(=O)c4ccnc(C(C)(C)F)c4)ccc3C)cc(C)n2)ccn1 [Example 470]
IC50 (WM3629 cells): ≤ 100 nM

CNC(=O)c1cc(-c2cc(-c3cc(NC(=O)c4ccnc(C(C)(C)F)c4)ccc3C)cnn2)ccn1 [Example 473]
IC50 (WM3629 cells): ≤ 100 nM

CNC(=O)c1cc(-c2cc(-c3cc(NC(=O)c4ccnc(C(C)(C)F)c4)ccc3C)ncn2)ccn1 [Example 474]
IC50 (WM3629 cells): ≤ 100 nM

Cc1ccc(NC(=O)c2ccnc(C(C)(C)F)c2)cc1-c1ccnc(-c2ccnc(C(N)=O)c2)c1 [Example 476]
IC50 (WM3629 cells): ≤ 100 nM
IC50 (Miapaca-2 cells [2]): 100 to 500 nM

CNC(=O)c1cc(-c2cc(-c3cc(NC(=O)c4cnnc(C(F)(F)F)c4)ccc3C)ccn2)ccn1 [Example 477]
IC50 (WM3629 cells): ≤ 100 nM

CNC(=O)c1cc(-c2cc(-c3cc(NC(=O)c4ccnc(C(C)(C)F)c4)ccc3F)ccn2)ccn1 [Example 479]
IC50 (WM3629 cells): ≤ 100 nM
IC50 (Miapaca-2 cells [2]): 1000 to 10000 nM

CNC(=O)c1cc(-c2cc(-c3cc(NC(=O)c4ccnc(C(C)(C)F)c4)cc(F)c3C)ccn2)ccn1 [Example 480]
IC50 (WM3629 cells): ≤ 100 nM

CNC(=O)c1cc(-c2cc(-c3cc(NC(=O)c4ccnc(C(C)(C)F)c4)ccn3)ccn2)ccn1 [Example 481]
IC50 (WM3629 cells): 1000 to 10000 nM

CNC(=O)c1cc(-c2cc(-c3cc(NC(=O)c4ccnc(C(C)(C)F)c4)c(F)cc3F)ccn2)ccn1 [Example 482]
IC50 (WM3629 cells): ≤ 100 nM
IC50 (Miapaca-2 cells [2]): 1000 to 10000 nM

Cc1cc(-c2cc(NC(=O)c3ccnc(C(C)(C)F)c3)ccc2C)cc(-c2ccnc(C#N)c2)n1 [Example 483]
IC50 (WM3629 cells): ≤ 100 nM

Cc1cc(-c2cc(NC(=O)c3ccnc(C(C)(C)F)c3)ccc2C)cc(-c2ccnc(C(N)=O)c2)n1 [Example 484]
IC50 (WM3629 cells): ≤ 100 nM
IC50 (Miapaca-2 cells [2]): 500 to 1000 nM
